# Source: patent US20190330197A1, “SUBSTITUTED NAPHTHALENE DIIMIDES AND THEIR USE” (UCL Business PLC, priority 2015, published 2019)
# Experiments:
# [1] = tested on: Hsp90B sequence from the HSP90 promoter; assay: FRET quadruplex stabilisation assay, Hsp90B; type: binding; settings: compound at 1 μM, 60 mM potassium cacodylate buffer pH 7.4
# From the text: (§1) The ability of the naphthalene diimide compounds to stabilize quadruplex DNA sequences was investigated using a fluorescence resonance energy transfer (FRET) assay modified to be used as a high-throughput screen in a 96-well format. Several quadruplex sequences were studied (including the human telomeric G-quadruplex DNA sequence 5′-FAM-d(GGG[TTAGGG]3)-TAMRA-3′ and the duplex sequence 5′-FAM-d[…]-HEG-[…]-TAMRA-3′ (HEG linker: [(—CH2—CH2—O—)6.
# (§2) The labelled oligonucleotides have attached to them the donor fluorophore FAM: 6-carboxyfluorescein and the acceptor fluorophore TAMRA: 6-carboxytetramethylrhodamine. The FRET probe sequences were diluted from stock to the correct concentration (400 nM) in a 60 mM potassium cacodylate buffer (pH 7.4) and then annealed by heating to 85° C. for 10 min, followed by cooling to room temperature in the heating block. The compound was stored as a 10 mM stock solution in DMSO; final solutions (at 2× concentration) were prepared using 10 mM HCl in the initial 1:10 dilution, after which 60 mM potassium cacodylate buffer (pH 7.4) was used in all subsequent steps. The maximum HCl concentration in the reaction volume (at a ligand concentration of 20 μM) is thus 200 μM, well within the range of the buffer used. Relevant controls were also performed to check for interference with the assay. 96-Well plates (MJ Research, Waltham, Mass.) were prepared by aliquoting 50 μl of the annealed DNA into each well, followed by 50 μl of the compound solutions. Measurements were made on a DNA Engine Opticon (MJ Research) with excitation at 450-495 nm and detection at 515-545 nm. Fluorescence readings were taken at intervals of 0.5° C. in the range 30-100° C., with a constant temperature being maintained for 30 s prior to each reading to ensure a stable value. Final analysis of the data was carried out using a script written in the program Origin 7.0 (OriginLab Corp., Northampton, Mass.). The advanced curve-fitting function in Origin 7.0 was used for calculation of ΔTm values. All determinations were performed in triplicate or better. Esds in ΔTm are ±0.1° C.
# [2] = tested on: Tloop (representing duplex DNA); assay: FRET assay, Tloop duplex DNA; type: binding; settings: compound at 1 μM, 60 mM potassium cacodylate buffer pH 7.4
# From the text: as §1, §2
# [3] = tested on: Kras32 sequence from the promoter region of the kras gene; assay: FRET quadruplex stabilisation assay, Kras32; type: binding; settings: compound at 1 μM, 60 mM potassium cacodylate buffer pH 7.4
# From the text: as §1, §2
# [4] = tested on: Panc1 (pancreatic cancer) cells; assay: SRB growth inhibition, Panc1; type: cell-based, human; settings: 96 hr, SRB assay; read-out: short-term 96 hr IC50 Panc1
# Method: (§3) Human cancer cell lines and the somatic human cell line WI-38 (lung fibroblast) were purchased from the American Type Culture Collection. Cell lines were maintained in appropriate medium supplemented with 10% foetal bovine serum (Invitrogen, UK), 2 mM L-glutamine (Invitrogen, Netherlands), and other components as specified by the suppliers. Cell lines were maintained at 37° C., 5% CO2 and routinely passaged. Drugs were dissolved in DMSO and filtered through 0.22 μm pore-size filter units before addition to cell line appropriate media. Cellular growth inhibition was measured using the sulforhodamine B (SRB) assay in 96 well plates. Fifty percent inhibitory concentrations (IC50) were determined by taking the mean absorbance at 540 nm for each drug concentration expressed as a percentage of the absorbance of untreated control wells.
# [5] = tested on: Kras21 sequence from the promoter region of the kras gene; assay: FRET quadruplex stabilisation assay, Kras21; type: binding; settings: compound at 1 μM, 60 mM potassium cacodylate buffer pH 7.4
# From the text: as §1, §2
# [6] = tested on: ALT (Alternative Lengthening of Telomeres) cell line; assay: SRB growth inhibition, ALT; type: cell-based, human; settings: 96 hr, SRB assay; read-out: short-term 96 hr IC50 ALT
# Method: as §3
# [7] = tested on: Mia-PaCa2 (pancreatic cancer) cells; assay: SRB growth inhibition, MiaPaCa2; type: cell-based, human; settings: 96 hr, SRB assay; read-out: short-term 96 hr IC50 MiaPaCa2
# Method: as §3
# MCF7 (breast) cells = assay: SRB growth inhibition, MCF7; type: cell-based, human; settings: 96 hr, SRB assay; read-out: short-term 96 hr IC50 MCF7
# Method: as §3
# [8] = tested on: WI38 (lung fibroblast) cells; assay: SRB growth inhibition, WI38; type: cell-based, human; settings: 96 hr, SRB assay; read-out: short-term 96 hr IC50 WI38
# Method: as §3
# [9] = tested on: human telomeric (F21T) G-quadruplex DNA; assay: FRET quadruplex stabilisation assay, F21T; type: binding; settings: compound at 1 μM, 60 mM potassium cacodylate buffer pH 7.4
# From the text: as §1, §2
# [10] = tested on: Bcl-2 sequence from the promoter region of the bcl-2 gene; assay: FRET quadruplex stabilisation assay, Bcl-2; type: binding; settings: compound at 1 μM, 60 mM potassium cacodylate buffer pH 7.4
# From the text: as §1, §2
# A549 (lung cancer) cells = assay: SRB growth inhibition, A549; type: cell-based, human; settings: 96 hr, SRB assay; read-out: short-term 96 hr IC50 A549
# Method: as §3
# [11] = tested on: Hsp90A sequence from the HSP90 promoter; assay: FRET quadruplex stabilisation assay, Hsp90A; type: binding; settings: compound at 1 μM, 60 mM potassium cacodylate buffer pH 7.4
# From the text: as §1, §2
Structure (SMILES),ΔTm Hsp90B [1] [°C],ΔTm Tloop [2] [°C],ΔTm Kras32 [3] [°C],IC50 [4] [nM],ΔTm Kras21 [5] [°C],IC50 [6] [nM],IC50 [7] [nM],IC50 (MCF7 (breast) cells) [nM],IC50 [8] [nM],ΔTm F21T [9] [°C],ΔTm Bcl-2 [10] [°C],IC50 (A549 (lung cancer) cells) [nM],ΔTm Hsp90A [11] [°C]
"O=C1c2ccc3c4c(c(NCCc5ccccn5)cc(c24)C(=O)N1CCCN1CCOCC1)C(=O)N(CCCN1CCOCC1)C3=O [Compound 4d, 2,7-bis(3-morpholinopropyl)-4-((2-(pyridin-2-yl)ethyl)amino)benzo[Imn][3,8]phenanthroline-1,3,6,8(2H,7H)-tetraone]",<2,0,1.5,340,3.0,1290,220,1070,2240,<2,2.8,130,2.5
"O=C1c2ccc3c4c(c(NCCc5ccc(O)cc5)cc(c24)C(=O)N1CCCN1CCOCC1)C(=O)N(CCCN1CCOCC1)C3=O [Compound 4j, 4-((4-hydroxyphenethyl)amino)-2,7-bis(3-morpholinopropyl)benzo[Imn][3,8]phenanthroline-1,3,6,8(2H,7H)-tetraone]",13.8,0.1,3.0,163,6.1,451,59,1540,1650,9,10.0,92,15.7
"O=C1c2ccc3c4c(c(NCC5CCCO5)cc(c24)C(=O)N1CCCN1CCOCC1)C(=O)N(CCCN1CCOCC1)C3=O (stereo not shown) [Compound 4h, 4-((tetrahydrofurylmethyl)amino)-2,7-bis(3-morpholinopropyl) benzo[Imn][3,8]phenanthroline-1,3,6,8(2H,7H)-tetraone]",6.8,0,1.2,808,3.4,710,139,1030,1880,1.4,4.2,146,3.9
"O=C1c2ccc3c4c(c(NCCN5CCOCC5)cc(c24)C(=O)N1CCCN1CCOCC1)C(=O)N(CCCN1CCOCC1)C3=O [Compound 4g, 4-((2-morpholinoethyl)amino)-2,7-bis(3-morpholinopropyl)benzo[Imn][3,8]phenanthroline-1,3,6,8(2H,7H)-tetraone]",9.4,1.5,1.5,220,2.4,10900,206,> 25000,17600,6.0,5.8,2180,11.0
"CN1CCN(CCCNc2cc3c4c(c(NCCCN5CCN(C)CC5)cc5c4c2C(=O)N(CCCN2CCOCC2)C5=O)C(=O)N(CCCN2CCOCC2)C3=O)CC1 [MM41, 4,9-bis((3-(4-methylpiperazine-1-yl)-propyl)amino)-2,7-bis(3-morpholinopropyl)benzo[Imn][3,8]phenanthroline-1,3,6,8(2H,7H)-tetraone, reference compound]",28.6,4.9,19.8,3,22.5,63,11,70,230,26.6,26.4,19,33.1
"O=C1c2ccc3c4c(c(NCCN5CCCCC5)cc(c24)C(=O)N1CCCN1CCOCC1)C(=O)N(CCCN1CCOCC1)C3=O [Compound 4f, 2,7-bis(3-morpholinopropyl)-4-((2-(piperidin-1-yl)ethyl)amino)benzo[Imn][3,8]phenanthroline-1,3,6,8(2H,7H)-tetraone]",8.7,0.6,2.2,84,4.8,535,108,1110,5330,9.8,5.9,198,9.1
"CN1CCN(CCNc2cc3c4c(ccc5c4c2C(=O)N(CCCN2CCOCC2)C5=O)C(=O)N(CCCN2CCOCC2)C3=O)CC1 [Compound 4b, 4-((2-(4-methylpiperazin-1-yl)ethyl)amino)-2,7-bis(3-morpholinopropyl)benzo[Imn][3,8]phenanthroline-1,3,6,8(2H,7H)-tetraone]",15.0,0.4,6.1,46,11.0,85,48,316,1490,12.3,15.1,86,18.1
"CN1CCN(CCCNc2cc3c4c(ccc5c4c2C(=O)N(CCCN2CCOCC2)C5=O)C(=O)N(CCCN2CCOCC2)C3=O)CC1 [Compound 4a, 4-((3-(4-methylpiperazin-1-yl)propyl)amino)-2,7-bis(3-morpholinopropyl)benzo[Imn][3,8]phenanthroline-1,3,6,8(2H,7H)-tetraone]",16.5,0.8,6.1,45,9.8,224,59,357,1830,14.3,15.8,67,19.8
"O=C1c2ccc3c4c(c(NCCCCN5CCCC5)cc(c24)C(=O)N1CCCN1CCOCC1)C(=O)N(CCCN1CCOCC1)C3=O [Compound 4e, 2,7-bis(3-morpholinopropyl)-4-((4-(pyrrolidin-1-yl)butyl)amino)benzo[Imn][3,8]phenanthroline-1,3,6,8(2H,7H)-tetraone]",16.9,0.2,6.6,33,11.7,89,36,222,1220,15.9,16.1,26,20.6
"CCN(CC)CCNc1cc2c3c(ccc4c3c1C(=O)N(CCCN1CCOCC1)C4=O)C(=O)N(CCCN1CCOCC1)C2=O [Compound 4i, 4-((2-(diethylamino)ethyl)amino)-2,7-bis(3-morpholinopropyl)benzo[Imn][3,8]phenanthroline-1,3,6,8(2H,7H)-tetraone]",4.5,0,0.2,909,0.7,2670,1080,3330,5530,<2,2.4,825,2.7
